Read-outs that look alike come from different tables or passages of the source.
Columns and labels:
Tmu-ACR-16-like = target: T1, Tmu-ACR-16-like (Trichuris muris, UniProt A0A5S6R3I6); test: two-electrode voltage-clamp in Xenopus oocytes co-injected with Xla-ric-3; assay type: cell-based
T1 construct: full-length subunit (464 amino acids; GenBank MZ322663), homomeric receptor in Xenopus laevis oocytes

Tsu-ACR-16-like = target: T2, Tsu-ACR-16-like (Trichuris suis, UniProt A0A890W0I7); test: as above; assay type: cell-based
T2 construct: ACR-16-like subunit (GenBank MT386096), homomeric receptor in Xenopus laevis oocytes
T2 sequence (A0A890W0I7 22-461): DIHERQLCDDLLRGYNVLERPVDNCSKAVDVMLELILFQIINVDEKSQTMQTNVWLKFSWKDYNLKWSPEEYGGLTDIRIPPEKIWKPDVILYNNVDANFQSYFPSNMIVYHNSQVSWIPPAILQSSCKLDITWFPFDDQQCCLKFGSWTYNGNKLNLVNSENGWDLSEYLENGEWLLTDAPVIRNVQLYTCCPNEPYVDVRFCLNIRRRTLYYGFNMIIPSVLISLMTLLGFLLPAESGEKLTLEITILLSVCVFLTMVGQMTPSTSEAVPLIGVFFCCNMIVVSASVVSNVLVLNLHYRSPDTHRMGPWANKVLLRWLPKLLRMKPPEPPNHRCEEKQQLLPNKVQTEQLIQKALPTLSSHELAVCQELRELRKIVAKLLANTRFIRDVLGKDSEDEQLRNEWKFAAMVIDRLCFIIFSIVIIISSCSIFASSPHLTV

T1 sequence (A0A5S6R3I6 entry or part of it): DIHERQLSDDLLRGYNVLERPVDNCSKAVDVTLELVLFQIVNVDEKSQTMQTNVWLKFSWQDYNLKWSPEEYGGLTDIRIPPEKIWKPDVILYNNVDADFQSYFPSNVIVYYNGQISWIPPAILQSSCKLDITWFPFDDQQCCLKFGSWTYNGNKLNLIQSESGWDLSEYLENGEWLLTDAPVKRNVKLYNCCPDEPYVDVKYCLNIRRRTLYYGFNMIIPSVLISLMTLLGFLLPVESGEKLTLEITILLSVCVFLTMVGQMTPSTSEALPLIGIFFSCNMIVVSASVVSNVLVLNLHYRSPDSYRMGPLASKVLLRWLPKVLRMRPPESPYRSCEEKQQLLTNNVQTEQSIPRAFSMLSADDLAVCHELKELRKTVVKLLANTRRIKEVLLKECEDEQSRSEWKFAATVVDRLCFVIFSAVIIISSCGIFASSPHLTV

| Compound | EC50 (Tmu-ACR-16-like; read-out: EC50) | EC50 (Tsu-ACR-16-like) | EC50 (Tmu-ACR-16-like) |
| --- | --- | --- | --- |
| CC(=O)OCC[N+](C)(C)C [acetylcholine] | 31.1 ± 0.3 µM | – | – |
| Clc1ccc(C2CC3CCC2N3)cn1 (stereo not shown) [epibatidine] | – | 1.9 ± 0.5 µM | 1.7 ± 0.4 µM |
| CN1CCCN=C1/C=C/c1cccc(O)c1 [oxantel] | 32.7 ± 0.3 µM | – | – |
